What was measured:
GPR40 [1] = target: T1, GPR40 (Homo sapiens, UniProt O14842); test: Inositol phosphate accumulation assay (A9_GPR40 cells); assay type: cell-based; set-up: expressed in transfected cells; host or cells: CHO cells stably transfected with GPR40 and aequorin; settings: inositol phosphate assay, A9_GPR40 cells, 1 hour; read-out: IP3 EC50
In short: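 A9 cells stably expressing GPR40 were labelled 16 h with 1 μCi/mL ^3H-inositol in inositol-free DMEM with dialysed FBS. Compounds in HBSS/10 mM LiCl with HSA were applied for 1 h at 37° C, then quenched with 20 mM formic acid. Accumulated [^3H] inositol phosphates were counted by SPA.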

GPR40 [2] = target: T1, GPR40; test: Cell-based aequorin assay (CHO cells stably expressing GPR40 and aequorin); set-up: expressed in transfected cells; host or cells: CHO cells stably transfected with GPR40 and aequorin; settings: activation of human GPR40, CHO cells, 0.01% HSA
In short: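 CHO cells stably co-expressing GPR40 and aequorin, loaded with coelenterazine (1 ug/mL, 2 h, room temperature) in H/HBSS with 20 mM Hepes and 0.01% fatty acid-free HSA. Serially diluted compounds added; luminescence recorded over 20 s. EC50 from dose-response of maximum relative light units.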

T1 sequence (O14842 whole entry): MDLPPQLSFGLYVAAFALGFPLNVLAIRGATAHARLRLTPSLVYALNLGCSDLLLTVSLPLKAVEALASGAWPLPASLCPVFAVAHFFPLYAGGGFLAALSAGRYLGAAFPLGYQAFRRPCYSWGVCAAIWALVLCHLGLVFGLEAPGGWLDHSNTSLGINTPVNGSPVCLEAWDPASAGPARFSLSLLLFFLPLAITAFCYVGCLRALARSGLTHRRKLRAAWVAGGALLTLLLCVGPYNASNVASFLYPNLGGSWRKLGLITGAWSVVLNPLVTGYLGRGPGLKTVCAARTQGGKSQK

SMILES | EC50 (GPR40 [1]) | EC50 (GPR40 [2])
COc1ccc(F)c(-c2ccc(COc3cccc(C(C)(C)CC(=O)O)c3)cc2C2CCCC2(C)C)c1 (single isomer, unassigned) [Example 85.3, 3-(3-(((2-((1R)-2,2-Dimethylcyclopentyl)-2′-fluoro-5′-(methyloxy)-1,1′-biphenyl-4-yl)methyl)oxy)phenyl)-3-methylbutanoic acid or 3-(3-(((2-((1S)-2,2-dimethylcyclopentyl)-2′-fluoro-5′-(methyloxy)-1,1′-biphenyl-4-yl)methyl)oxy)phenyl)-3-methylbutanoic acid] | 10 to 100 nM | 100 to 1000 nM
COc1cc(-c2ccc(COc3cccc(C(C)(C)CC(=O)O)c3)cc2C2CCCC2(C)C)c(F)cn1 (single isomer, unassigned) [Example 85.4, 3-{3-[3-((S)-2,2-Dimethyl-cyclopentyl)-4-(5-fluoro-2-methoxy-pyridin-4-yl)-benzyloxy]-phenyl}-3-methyl-butyric acid or 3-{3-[3-((R)-2,2-dimethyl-cyclopentyl)-4-(5-fluoro-2-methoxy-pyridin-4-yl)-benzyloxy]-phenyl}-3-methyl-butyric acid] | 10 to 100 nM | 100 to 1000 nM
COc1cc(-c2cc(F)c(COc3cccc(C(C)(C)CC(=O)O)c3)cc2C2CCCC2(C)C)c(F)cn1 (single isomer, unassigned) [Example 85.5, 3-(3-(((5-((1S)-2,2-Dimethylcyclopentyl)-2-fluoro-4-(5-fluoro-2-(methyloxy)-4-pyridinyl)phenyl)methyl)oxy)phenyl)-3-methylbutanoic acid or 3-(3-(((5-((1R)-2,2-dimethylcyclopentyl)-2-fluoro-4-(5-fluoro-2-(methyloxy)-4-pyridinyl)phenyl)methyl)oxy)phenyl)-3-methylbutanoic acid] | 10 to 100 nM | 100 to 1000 nM
COc1cc(-c2ccc(COc3cccc(C(C)(C)CC(=O)O)c3)cc2C(OC)C(C)(C)C)c(F)cn1 (single isomer, unassigned) [Example 85.6, 3-(3-(((3-((1S)-2,2-Dimethyl-1-(methyloxy)propyl)-4-(5-fluoro-2-(methyloxy)-4-pyridinyl)phenyl)methyl)oxy)phenyl)-3-methylbutanoic acid or 3-(3-(((3-((1R)-2,2-dimethyl-1-(methyloxy)propyl)-4-(5-fluoro-2-(methyloxy)-4-pyridinyl)phenyl)methyl)oxy)phenyl)-3-methylbutanoic acid] | 10 to 100 nM | 100 to 1000 nM
CCC(CC(=O)O)c1ccc(F)c(OCc2ccc(-c3cc(OC)ccc3F)c(C3=CCCC3(C)C)c2)c1 (single isomer, unassigned) [Example 86.1, (3R)-3-(3-(((2-(5,5-Dimethyl-1-cyclopenten-1-yl)-2′-fluoro-5′-(methyloxy)-1,1′-biphenyl-4-yl)methyl)oxy)-4-fluorophenyl)pentanoic acid or (3S)-3-(3-(((2-(5,5-dimethyl-1-cyclopenten-1-yl)-2′-fluoro-5′-(methyloxy)-1,1′-biphenyl-4-yl)methyl)oxy)-4-fluorophenyl)pentanoic acid] | 100 to 1000 nM | 100 to 1000 nM
CC[C@H](CC(=O)O)c1ccc(C)c(OCc2ccc(-c3cc(OC)ccc3F)c(C(C)(C)C)c2)c1 (single isomer, unassigned) [Example 87] | 100 to 1000 nM | 100 to 1000 nM
CCC(CC(=O)O)c1cc(F)cc(OCc2ccc(-c3cc(OC)ccc3F)c(C3CCCC3(C)C)c2)c1 (single isomer, unassigned) [Example 88.1] | < 10 nM | 10 to 100 nM
CCC(CC(=O)O)c1cc(F)cc(OCc2ccc(-c3cc(OC)ccc3F)c(C3=CCCC3(C)C)c2)c1 (single isomer, unassigned) [Example 88.2, (3R)-3-(3-(((2-(5,5-Dimethyl-1-cyclopenten-1-yl)-2′-fluoro-5′-(methyloxy)-1,1′-biphenyl-4-yl)methyl)oxy)-5-fluorophenyl)pentanoic acid or (3S)-3-(3-(((2-(5,5-dimethyl-1-cyclopenten-1-yl)-2′-fluoro-5′-(methyloxy)-1,1′-biphenyl-4-yl)methyl)oxy)-5-fluorophenyl)pentanoic acid] | 10 to 100 nM | 100 to 1000 nM
CCC(CC(=O)O)c1cc(F)cc(OCc2cc(C3CCCC3(C)C)c(-c3cc(OC)ccc3F)cc2F)c1 (single isomer, unassigned) [Example 88.3] | < 10 nM | 100 to 1000 nM
CCC(CC(=O)O)c1cc(F)cc(OCc2ccc(-c3cc(OC)ncc3F)c(C3CCCC3(C)C)c2)c1 (single isomer, unassigned) [Example 88.4] | < 10 nM | 100 to 1000 nM
COc1ccc(F)c(-c2ccc(COc3cc(F)cc(C(CC(=O)O)CC4CC4)c3)cc2C2CCCC2(C)C)c1 (single isomer, unassigned) [Example 89.1] | < 10 nM | 10 to 100 nM
COc1ccc(F)c(-c2ccc(COc3cc(F)cc(C(CC(=O)O)CC4CC4)c3)cc2C2=CCCC2(C)C)c1 (single isomer, unassigned) [Example 89.2, (3R)-4-Cyclopropyl-3-(3-(((2-(5,5-dimethyl-1-cyclopenten-1-yl)-2′-fluoro-5′-(methyloxy)-1,1′-biphenyl-4-yl)methyl)oxy)-5-fluorophenyl)butanoic acid or (3S)-4-cyclopropyl-3-(3-(((2-(5,5-dimethyl-1-cyclopenten-1-yl)-2′-fluoro-5′-(methyloxy)-1,1′-biphenyl-4-yl)methyl)oxy)-5-fluorophenyl)butanoic acid] | 10 to 100 nM | 100 to 1000 nM
COc1ccc(F)c(-c2cc(F)c(COc3cc(F)cc(C(CC(=O)O)CC4CC4)c3)cc2C2CCCC2(C)C)c1 (single isomer, unassigned) [Example 89.3] | < 10 nM | 100 to 1000 nM
COc1cc(-c2ccc(COc3cc(F)cc(C(CC(=O)O)CC4CC4)c3)cc2C2CCCC2(C)C)c(F)cn1 (single isomer, unassigned) [Example 89.4] | < 10 nM | 100 to 1000 nM
CCC(CC(=O)O)c1cc(F)cc(OCc2ccc(-c3cc(OC)ccc3F)c(C3=CCCC3(C)C)c2)c1F (single isomer, unassigned) [Example 90.1, (3R)-3-(3-(((2-(5,5-Dimethyl-1-cyclopenten-1-yl)-2′-fluoro-5′-(methyloxy)-1,1′-biphenyl-4-yl)methyl)oxy)-2,5-difluorophenyl)pentanoic acid or (3S)-3-(3-(((2-(5,5-dimethyl-1-cyclopenten-1-yl)-2′-fluoro-5′-(methyloxy)-1,1′-biphenyl-4-yl)methyl)oxy)-2,5-difluorophenyl)pentanoic acid] | 10 to 100 nM | 100 to 1000 nM
CCC(CC(=O)O)c1cc(F)cc(OCc2ccc(-c3cc(OC)ccc3F)c(C3CCCC3(C)C)c2)c1F (single isomer, unassigned) [Example 90.2] | < 10 nM | 100 to 1000 nM
CCC(CC(=O)O)c1cc(F)cc(OCc2ccc(-c3cc(OC)ncc3F)c(C3CCCC3(C)C)c2)c1F (single isomer, unassigned) [Example 90.3] | < 10 nM | 100 to 1000 nM
CCC(CC(=O)O)c1cc(OCc2ccc(-c3cc(OC)ccc3F)c(C3=CCCC3(C)C)c2)cc(C(F)(F)F)c1 (single isomer, unassigned) [Example 91, (3R)-3-(3-(((2-(5,5-Dimethyl-1-cyclopenten-1-yl)-2′-fluoro-5′-(methyloxy)-1,1′-biphenyl-4-yl)methyl)oxy)-5-(trifluoromethyl)phenyl)pentanoic acid or (3S)-3-(3-(((2-(5,5-dimethyl-1-cyclopenten-1-yl)-2′-fluoro-5′-(methyloxy)-1,1′-biphenyl-4-yl)methyl)oxy)-5-(trifluoromethyl)phenyl)pentanoic acid] | 10 to 100 nM | 100 to 1000 nM
COc1ccc(F)c(-c2ccc(COc3cccc([C@@H](CC(=O)O)[C@@H]4C[C@H]4C)c3)cc2C(C)(C)C)c1 (single isomer, unassigned) [Example 93.1] | 10 to 100 nM | 100 to 1000 nM
COc1ccc(F)c(-c2ccc(COc3cccc([C@@H](CC(=O)O)[C@@H]4C[C@H]4C)c3)cc2C2=CCCC2(C)C)c1 (single isomer, unassigned) [Example 93.2] | 10 to 100 nM | 100 to 1000 nM
COc1ccc(F)c(-c2ccc(COc3cccc([C@H](CC(=O)O)C4CC4)c3)cc2[C@@H]2CCCC2(C)C)c1 (single isomer, unassigned) [Example 97.3] | 10 to 100 nM | 100 to 1000 nM
COc1ccc(F)c(-c2ccc(COc3cccc(C(CC(=O)O)C4CC4)c3F)cc2C2CCCC2(C)C)c1 (single isomer, unassigned) [Example 99.2] | 10 to 100 nM | 100 to 1000 nM
CCC(C)(CC(=O)O)c1cccc(OCc2ccc(-c3cc(OC)ccc3F)c([C@@H]3CCCC3(C)C)c2)c1 (single isomer, unassigned) [Example 103, 3-(3-(((2-((1S)-2,2-Dimethylcyclopentyl)-2′-fluoro-5′-(methyloxy)-1,1′-biphenyl-4-yl)methyl)oxy)phenyl)-3-methylpentanoic acid or 3-(3-(((2-((1R)-2,2-dimethylcyclopentyl)-2′-fluoro-5′-(methyloxy)-1,1′-biphenyl-4-yl)methyl)oxy)phenyl)-3-methylpentanoic acid] | 10 to 100 nM | 100 to 1000 nM
